IC50 data for 27 molecules are collected here from patent US11970498B2, “CDK2 inhibitors” (BLUEPRINT MEDICINES CORPORATION, priority 2021, dated 2024).

One test deals with CDK2/Cyclin E (Homo sapiens, UniProt P24941). Put plainly: CDK2/Cyclin E biochemical phosphorylation assay (Caliper mobility shift). The note with it: apparent IC50; 1.0 mM ATP or ATP Km; 1.25 nM enzyme; 25° C.; read-out: CDK2/cyclin E1 IC50. The gist of the method:
(§1)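 7.5 µM 5-FAM-QSPKKG-CONH2 peptide phosphorylated by CDK2/Cyclin E (1.25 nM) or GST-CDK1/Cyclin B1 (1.5 nM) at 1.0 mM ATP or ATP Km, in HEPES pH 7.5, MgCl2, Brij-35, DTT, 1% DMSO, 25 °C to 10–20% conversion. EDTA stop; Caliper mobility-shift readout; apparent IC50 from percent activity vs log concentration.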

For the next test, the target named is T1, CDK1/Cyclin B1, GST-tag (Homo sapiens, UniProt P06493).
T1 construct: GST
T1 sequence (P06493 whole entry): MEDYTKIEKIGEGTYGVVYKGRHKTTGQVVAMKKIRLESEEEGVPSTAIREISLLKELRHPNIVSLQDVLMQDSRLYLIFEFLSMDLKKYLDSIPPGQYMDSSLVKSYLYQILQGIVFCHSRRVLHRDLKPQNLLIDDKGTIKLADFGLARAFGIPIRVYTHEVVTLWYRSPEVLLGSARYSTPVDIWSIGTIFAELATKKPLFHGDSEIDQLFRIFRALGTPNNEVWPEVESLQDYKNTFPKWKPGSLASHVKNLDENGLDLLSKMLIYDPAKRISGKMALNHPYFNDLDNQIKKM
T1 sequence (P14635 whole entry partner): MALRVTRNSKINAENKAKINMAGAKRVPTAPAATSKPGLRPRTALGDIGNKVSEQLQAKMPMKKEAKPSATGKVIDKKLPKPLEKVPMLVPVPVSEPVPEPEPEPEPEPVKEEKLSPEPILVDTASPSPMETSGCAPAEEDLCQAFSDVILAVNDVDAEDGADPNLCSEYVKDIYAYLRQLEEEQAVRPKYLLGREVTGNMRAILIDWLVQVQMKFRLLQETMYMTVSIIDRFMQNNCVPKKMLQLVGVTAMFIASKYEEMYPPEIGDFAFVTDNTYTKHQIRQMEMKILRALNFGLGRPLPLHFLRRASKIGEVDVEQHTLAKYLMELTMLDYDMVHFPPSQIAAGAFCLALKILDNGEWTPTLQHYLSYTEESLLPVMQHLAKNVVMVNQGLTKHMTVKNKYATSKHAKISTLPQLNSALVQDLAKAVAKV
Put plainly: CDK1/Cyclin B1 biochemical phosphorylation assay (Caliper mobility shift). The note with it: apparent IC50; 1.0 mM ATP or ATP Km; 1.5 nM enzyme; 25° C. Summed up:
as §1

`OC[C@@H](c1ccccc1)n1ncc2ncc(Nc3cc(OC(F)F)[nH]n3)nc21` [Example 203, (R)-2-(6-((5-(difluoromethoxy)-1H-pyrazol-3-yl)amino)-1H-pyrazolo[3,4-b]pyrazin-1-yl)-2-phenylethan-1-ol]: the IC50 on CDK2/Cyclin E was 30 to 100 nM; on CDK1/Cyclin B1, GST-tag it was not below 500 nM.
Turning to `Fc1ncccc1Cn1ncc2ncc(Nc3cc(OC(F)F)[nH]n3)nc21` [Example 7, N-(5-(difluoromethoxy)-1H-pyrazol-3-yl)-1-((2-fluoropyridin-3-yl)methyl)-1H-pyrazolo[3,4-b]pyrazin-6-amine], the IC50 was not above 10 nM on CDK2/Cyclin E and 100 to 500 nM at CDK1/Cyclin B1, GST-tag.
Consider `COc1cc(Nc2cnc3cnn(C[C@H]4CCCOC4)c3n2)n[nH]1` [Example 140, (R)-N-(5-methoxy-1H-pyrazol-3-yl)-1-((tetrahydro-2H-pyran-3-yl)methyl)-1H-pyrazolo[3,4-b]pyrazin-6-amine], for which the IC50 was 10 to 20 nM on CDK2/Cyclin E and not below 500 nM at CDK1/Cyclin B1, GST-tag.
The like results for `FC(F)Oc1cc(Nc2cnc3cnn(Cc4ccccc4)c3n2)n[nH]1` [Example 36, 1-benzyl-N-(5-(difluoromethoxy)-1H-pyrazol-3-yl)-1H-pyrazolo[3,4-b]pyrazin-6-amine] were, in that order, 20 to 30 nM and not below 500 nM.
For the molecule `COc1cc(Nc2cnc3cnn([C@H](C)C4CC4)c3n2)n[nH]1` [Example 73, (R)-1-(1-cyclopropylethyl)-N-(5-methoxy-1H-pyrazol-3-yl)-1H-pyrazolo[3,4-b]pyrazin-6-amine], the IC50 on CDK2/Cyclin E is 10 to 20 nM; on CDK1/Cyclin B1, GST-tag, not below 500 nM.
`N#C[C@H]1C[C@@H]1Cn1ncc2ncc(Nc3cc(OC(F)F)[nH]n3)nc21` (single isomer, unassigned) [Example 27, (1S,2S)-2-((6-((5-(difluoromethoxy)-1H-pyrazol-3-yl)amino)-1H-pyrazolo[3,4-b]pyrazin-1-yl)methyl)cyclopropane-1-carbonitrile or (1R,2R)-2-((6-((5-(difluoromethoxy)-1H-pyrazol-3-yl)amino)-1H-pyrazolo[3,4-b]pyrazin-1-yl)methyl)cyclopropane-1-carbonitrile]: the IC50 was not above 10 nM on CDK2/Cyclin E and 100 to 500 nM on CDK1/Cyclin B1, GST-tag.
For `C[C@@H]([C@@H]1COCCO1)n1ncc2ncc(Nc3cc(OC(F)F)[nH]n3)nc21` (single isomer, unassigned) [Example 214], in that order: 10 to 20 nM and not below 500 nM.
Take `Fc1cccc(Cn2ncc3ncc(Nc4cc(OC(F)F)[nH]n4)nc32)c1` [Example 39, N-(5-(difluoromethoxy)-1H-pyrazol-3-yl)-1-(3-fluorobenzyl)-1H-pyrazolo[3,4-b]pyrazin-6-amine]: the IC50 on CDK2/Cyclin E was 20 to 30 nM; on CDK1/Cyclin B1, GST-tag, not below 500 nM.
For `CC(C)Cn1ncc2ncc(Nc3cc(OC(F)F)[nH]n3)nc21` [Example 100, N-(5-(difluoromethoxy)-1H-pyrazol-3-yl)-1-isobutyl-1H-pyrazolo[3,4-b]pyrazin-6-amine], in that order: 10 to 20 nM and not below 500 nM.
Regarding `C[C@@H]([C@H]1CCCOC1)n1ncc2ncc(Nc3cc(OC(F)F)[nH]n3)nc21` (single isomer, unassigned) [Example 217], the IC50 is 30 to 100 nM at CDK2/Cyclin E and not below 500 nM on CDK1/Cyclin B1, GST-tag.
On to `Fc1ccc(Cn2ncc3ncc(Nc4cc(OC(F)F)[nH]n4)nc32)cc1` [Example 40, N-(5-(difluoromethoxy)-1H-pyrazol-3-yl)-1-(4-fluorobenzyl)-1H-pyrazolo[3,4-b]pyrazin-6-amine], for which the IC50 on CDK2/Cyclin E is 10 to 20 nM; on CDK1/Cyclin B1, GST-tag, not below 500 nM.
In the case of `COc1cc(Nc2cnc3cnn(Cc4cncs4)c3n2)n[nH]1` [Example 75, N-(5-methoxy-1H-pyrazol-3-yl)-1-(thiazol-5-ylmethyl)-1H-pyrazolo[3,4-b]pyrazin-6-amine], the IC50 is 20 to 30 nM on CDK2/Cyclin E and not below 500 nM on CDK1/Cyclin B1, GST-tag.
`FC(F)Oc1cc(Nc2cnc3cnn([C@H](c4ccccc4)C4COC4)c3n2)n[nH]1` (single isomer, unassigned) [Example 162, (R)-N-(5-(difluoromethoxy)-1H-pyrazol-3-yl)-1-(oxetan-3-yl(phenyl)methyl)-1H-pyrazolo[3,4-b]pyrazin-6-amine or (S)-N-(5-(difluoromethoxy)-1H-pyrazol-3-yl)-1-(oxetan-3-yl(phenyl)methyl)-1H-pyrazolo[3,4-b]pyrazin-6-amine]: the IC50 on CDK2/Cyclin E was more than 100 nM; at CDK1/Cyclin B1, GST-tag it was not below 500 nM.
As to `C[C@@H]([C@@H]1COCCO1)n1ncc2ncc(Nc3cc(OC(F)F)[nH]n3)nc21` (single isomer, unassigned) [Example 212], the IC50 on CDK2/Cyclin E is more than 100 nM; at CDK1/Cyclin B1, GST-tag, not below 500 nM.
For `C[C@@H](c1ccccc1F)n1ncc2ncc(Nc3cc(OC(F)F)[nH]n3)nc21` [Example 46, (S)-N-(5-(difluoromethoxy)-1H-pyrazol-3-yl)-1-(1-(2-fluorophenyl)ethyl)-1H-pyrazolo[3,4-b]pyrazin-6-amine], in that order: not above 10 nM and not below 500 nM.
As to `C[C@H](C1CCOCC1)n1ncc2ncc(Nc3cc(OC(F)F)[nH]n3)nc21` [Example 34, (R)-N-(5-(difluoromethoxy)-1H-pyrazol-3-yl)-1-(1-(tetrahydro-2H-pyran-4-yl)ethyl)-1H-pyrazolo[3,4-b]pyrazin-6-amine], the IC50 is 10 to 20 nM on CDK2/Cyclin E and not below 500 nM on CDK1/Cyclin B1, GST-tag.
On to `FC(F)Oc1cc(Nc2cnc3cnn(C[C@H]4CCCCO4)c3n2)n[nH]1` [Example 107, (R)-N-(5-(difluoromethoxy)-1H-pyrazol-3-yl)-1-((tetrahydro-2H-pyran-2-yl)methyl)-1H-pyrazolo[3,4-b]pyrazin-6-amine], for which the IC50 is 20 to 30 nM on CDK2/Cyclin E and not below 500 nM on CDK1/Cyclin B1, GST-tag.
In the case of `COc1cc(Nc2cnc3cnn([C@@H](C)C4COC4)c3n2)n[nH]1` [Example 71, (S)-N-(5-methoxy-1H-pyrazol-3-yl)-1-(1-(oxetan-3-yl)ethyl)-1H-pyrazolo[3,4-b]pyrazin-6-amine], the IC50 on CDK2/Cyclin E is 10 to 20 nM; on CDK1/Cyclin B1, GST-tag, not below 500 nM.
Consider `FC(F)Oc1cc(Nc2cnc3cnn([C@H](c4ccccc4)C4COC4)c3n2)n[nH]1` (single isomer, unassigned) [Example 161, (S)-N-(5-(difluoromethoxy)-1H-pyrazol-3-yl)-1-(oxetan-3-yl(phenyl)methyl)-1H-pyrazolo[3,4-b]pyrazin-6-amine or (R)-N-(5-(difluoromethoxy)-1H-pyrazol-3-yl)-1-(oxetan-3-yl(phenyl)methyl)-1H-pyrazolo[3,4-b]pyrazin-6-amine], for which the IC50 at CDK2/Cyclin E is 30 to 100 nM; on CDK1/Cyclin B1, GST-tag it was not below 500 nM.
`C[C@@H](C1CCOCC1)n1nc(C#N)c2ncc(Nc3cc(OC(F)F)[nH]n3)nc21` [Example 64, (S)-6-((5-(difluoromethoxy)-1H-pyrazol-3-yl)amino)-1-(1-(tetrahydro-2H-pyran-4-yl)ethyl)-1H-pyrazolo[3,4-b]pyrazine-3-carbonitrile]: the IC50 at CDK2/Cyclin E was 20 to 30 nM; at CDK1/Cyclin B1, GST-tag, not below 500 nM.
The like results for `COc1cc(Nc2cnc3cnn([C@@H](CF)C4CCOCC4)c3n2)n[nH]1` (single isomer, unassigned) [Example 195, (S)-1-(2-fluoro-1-(tetrahydro-2H-pyran-4-yl)ethyl)-N-(5-methoxy-1H-pyrazol-3-yl)-1H-pyrazolo[3,4-b]pyrazin-6-amine or (R)-1-(2-fluoro-1-(tetrahydro-2H-pyran-4-yl)ethyl)-N-(5-methoxy-1H-pyrazol-3-yl)-1H-pyrazolo[3,4-b]pyrazin-6-amine] were, in that order, more than 100 nM and not below 500 nM.
Regarding `O[C@H]1CC[C@@H](n2ncc3ncc(Nc4cc(OC(F)F)[nH]n4)nc32)C1` (single isomer, unassigned) [Example 208], the IC50 at CDK2/Cyclin E was not above 10 nM; at CDK1/Cyclin B1, GST-tag, not below 500 nM.
With `C[C@@H](C1CCOCC1)n1ncc2ncc(Nc3cc(OC(F)F)[nH]n3)nc21` [Example 77, (S)-N-(5-(difluoromethoxy)-1H-pyrazol-3-yl)-1-(1-(tetrahydro-2H-pyran-4-yl)ethyl)-1H-pyrazolo[3,4-b]pyrazin-6-amine], the IC50 is not above 10 nM at CDK2/Cyclin E and 100 to 500 nM at CDK1/Cyclin B1, GST-tag.
On to `FC(F)Oc1cc(Nc2cnc3cnn(Cc4cscn4)c3n2)n[nH]1` [Example 52, N-(5-(difluoromethoxy)-1H-pyrazol-3-yl)-1-(thiazol-4-ylmethyl)-1H-pyrazolo[3,4-b]pyrazin-6-amine], for which the IC50 at CDK2/Cyclin E is 30 to 100 nM; on CDK1/Cyclin B1, GST-tag, not below 500 nM.
`FC[C@H](c1ccccn1)n1ncc2ncc(Nc3cc(OC(F)F)[nH]n3)nc21` (single isomer, unassigned) [Example 16, (S)—N-(5-(difluoromethoxy)-1H-pyrazol-3-yl)-1-(2-fluoro-1-(pyridin-2-yl)ethyl)-1H-pyrazolo[3,4-b]pyrazin-6-amine or (R)—N-(5-(difluoromethoxy)-1H-pyrazol-3-yl)-1-(2-fluoro-1-(pyridin-2-yl)ethyl)-1H-pyrazolo[3,4-b]pyrazin-6-amine]: the IC50 was not above 10 nM at CDK2/Cyclin E and not below 500 nM at CDK1/Cyclin B1, GST-tag.
With `C[C@@H](c1ccccc1)n1ncc2ncc(Nc3cc(OC(F)F)[nH]n3)nc21` [Example 93, (S)-N-(5-(difluoromethoxy)-1H-pyrazol-3-yl)-1-(1-phenylethyl)-1H-pyrazolo[3,4-b]pyrazin-6-amine], the IC50 at CDK2/Cyclin E was not above 10 nM; at CDK1/Cyclin B1, GST-tag, not below 500 nM.
For `COc1ncccc1[C@H](C)n1ncc2ncc(Nc3cc(OC(F)F)[nH]n3)nc21` [Example 59, (S)-N-(5-(difluoromethoxy)-1H-pyrazol-3-yl)-1-(1-(2-methoxypyridin-3-yl)ethyl)-1H-pyrazolo[3,4-b]pyrazin-6-amine], in that order: not above 10 nM and not below 500 nM.
